Laboratory results: patent US12594265B2, “Methods and compositions for inhibition of STAT3” (Ohio State Innovation Foundation, priority 2017, dated 2026)
Marks after values point to notes of the source that are not given here.

Legend:
[1] = system: EAE model of MS; assay: T cell encephalitogenicity in adoptive transfer after in vitro treatment of the cells; type: in vivo; design: dose or concentration left out as unconfirmed; settings: cells activated 3 days, then transferred into naïve B10PL mice
Experimental: (§1) EAE Induction. Immunization: 8-10 week old B6/WT or SJL/WT mice were s.c. injected over four sites in the flank with 200 μg MOG 35-55 or […] (CS bio) in an emulsion with CFA (Difco). 200 ng pertussis toxin (List) per mouse in PBS was injected i.p. at the time of immunization and 48 h later. Adoptive transfer: Splenocytes were isolated from naïve 5-10-week-old Vα2.3/Vβ8.2 TCR transgenic mice and activated with 10 μg/ml of MBP Ac1-11 with or without rmIL-6 in 24-well plates at […] with irradiated B10.PL splenocytes (6×10^8 cells/well). After 72 hours, the cells were washed with PBS and 8×10^6 were injected i.p. into naïve B10.PL mice. Evaluation. The mice were evaluated daily for clinical signs of EAE. Mice were scored on scale of 0 to 6:0, no clinical disease; 1, limp/flaccid tail; 2, moderate hind limb weakness; 3. severe hind limb weakness; 4. complete hind limb paralysis; 5 quadriplegia or premoribund state; and 6, death.
DMSO was used as vehicle control. The cells were then adoptively transferred into naïve B10PL mice (disease incidence). Data are representative of multiple independent experiments.

[2] = system: adoptively transferred EAE; assay: Adoptively transferred EAE model of MS (B10.PL mice); type: in vivo
Experimental: as §1
The in vivo efficacy of LLL12b was evaluated in adoptively transferred EAE model by treating EAE mice with […] of LLL12b for 7 days after disease onset. FIGS. 9A-9C show representative data for the effect of a representative disclosed compound, LLL12b, on suppression of EAE development in an adoptive transfer EAE model of MS. […] The mice were then treated with either DMSO or a representative disclosed compound, LLL12b, (10 mg/kg) by daily intraperitoneal for 7 days. […] The summary of all four independent experiments was shown below in Table 1.
EAE was induced via adoptive transfer of activated myelin-specific CD4 T cells from Vα2.3/Vβ8.2 TCR transgenic mice into B10.PL mice. LLL12b or DNSO (vehicle control) was injected i.p. into mice daily for 7 days, starting when 70% of the mice developed clinical EAE. Mice were monitored for clinical signeds of EAE. Assessment of clinical EAE includes the incidence of EAE, the mean peak clinical scores±SEM and the area under the curve. The results of three independent experiments are shown. ^aP<0.01, comparing incidence of EAE in LLL12b group versus DMSO group. ^bP<0.01, comparing mean peak clinical score of LLL12b group versus DMSO group. ^cP<0.05, comparing area under the curve of LLL12b group versus DMSO group.
LLL12b treatment suppresses the production of inflammatory cytokines in myelin-specific CD4 T cells and promotes Treg development in vivo. The ex vivo analysis to determine the T effector function of myelin-specific CD4 T cells as well as Treg development in treated mice was carried. FIGS. 10A-10C show representative data for the effect of treatment with a representative disclosed compound. LLL12b, on Treg development in an adoptively transferred EAE model of MS. Briefly, splenocytes from were isolated from either a LLL12b- or DMSO-treated group as indicated and analysed.

[3] = system: splenocytes from naïve TCR transgenic mice; assay: Cellular toxicity, trypan blue exclusion assay; type: cell-based; settings: 24 h, 48 h, 72 h; at the doses showing significant suppression of IL-17 production
Experimental: In vitro toxicity evaluation of new STAT3 prodrugs. Cellular toxicity testing was carried out using a trypan blue exclusion assay as described herein. FIGS. 6A-6C show representative data for cell viability after treatment with DMSO or the indicated concentration of the indicated representative prodrug at 24 h, 48 h, and 72 h post-treatment. The data were obtained using a trypan blue exclusion assay using splenocytes from naïve TCR transgenic mice that were cultured as described.

[4] = system: Teff cells from MS patients; assay: CFSE-based Treg-mediated suppression assay on Teff cells from MS patients; type: cell-based, human; settings: 0.25 μM for 1-2 hrs; 3 treatment-naïve MS patients
Experimental: FIGS. 15A-15C show representative data for LLL12b enhancement of Treg-mediated suppression on Teff cells obtained from MS patients. PBMCs were obtained from three treatment-naïve MS patients and were activated with αhCD3/CD28 plus rhTGFβ, rhIL-2 and RA for 3 days to generate Tregs. Meanwhile, PBMCs from the same three MS patients were labeled with CFSE and cultured with 0.25 μM of LLL12b or DMSO for 1-2 hours. The LLL12b or DMSO treated CFSE-CD4 T cells were then mixed with Tregs generated from the same patient at different ratios and activated with αhCD3 for 5 days. Proliferation of Teff cells was determined by flow cytometric analysis of CFSE on CD4 T cells. Cells were gated on CD4+ cells.
LLL12b enhances Treg mediated suppression on Teff cells from MS patients. Since Teff cells from MS patients are resistant to Treg mediated suppression and IL-6/STAT3 signaling promotes the resistance of Teff in MS patient, we determined whether LLL12b may enhance the Treg-mediated suppression on Teff from MS patients using CFSE-based suppression assay. PBMCs from three treatment-naïve MS patients were labeled with CFSE and cultured with 0.25 μM of LLL12b or DMSO for 1-2 hrs. Then the CFSE-CD4 T cells were mixed with iTregs differentiated from the same patient at different ratio, and activated with αhCD3 for 5 days. […]

[5] = system: pSTAT3 in CD4 T cells from MS patients; assay: Phosphorylation of STAT3 in CD4 T cells from MS patients (phospho flow cytometry); type: cell-based, human; settings: 0.25 μM; αhCD3 plus rhIL-6 for 30 minutes; 6 patients
Experimental: FIGS. 13A-13C show representative data for the effect of LLL12b treatment on the phosphorylation status of STAT3 in CD4 T-cells obtained from MS patients. Briefly, PBMCs from treatment-naïve MS patients were activated with αhCD3 plus rhIL-6 for 30 minutes, in the presence of 0.25 μM of LLL12b or vehicle control (DMSO). pSTAT3 was determined by phospho flow cytometry. Cells were gated on CD4+ cells.
LLL12b inhibits the phosphorylation of STAT3 in CD4 T cells from MS patients. To determine whether LLL12b suppresses the phosphorylation of STAT3 in human CD4 T cells, PBMCs from 6 treatment-naïve MS patients were activated with αhCD3 plus rhIL-6 for 30 minutes, in the presence of 0.25 μM of LLL12b or vehicle control (DMSO). pSTAT3 was determined by phospho flow cytometry.

| Compound | T cell encephalitogenicity in adoptive transfer [1] | EAE development (in words) ([2]; 10 mg/kg daily intraperitoneal for 7 days after disease onset) | level of CD25+FoxP3+CD4+ Treg cells in splenocytes of treated animals ([2]; ex vivo flow cytometry) | production of IFNγ by splenocytes of treated animals (ELISA) ([2]; ex vivo, activated with MBP Ac1-11 for 3 days) | Area under the curve (clinical score) ([2]; i.p. daily for 7 days) | Incidence of EAE (%) ([2]; i.p. daily for 7 days, starting when 70% of the mice developed clinical EAE) | Mean peak clinical score ([2]; i.p. daily for 7 days, ± SEM) | cellular toxicity (cell viability, trypan blue exclusion) [3] | Treg mediated suppression on Teff cells (% suppression) [4] | pSTAT3 expression in CD4 T cells from MS patients [5] |
| --- | --- | --- | --- | --- | --- | --- | --- | --- | --- | --- |
| NS(=O)(=O)c1cccc2c1C(=O)c1cccc(O)c1C2=O [LLL12] | inhibits T cell encephalitogenicity |  |  |  |  |  |  |  |  |  |
| CN(C)C(=O)Oc1cccc2c1C(=O)c1cccc(S(N)(=O)=O)c1C2=O [LLL12b] |  | significantly suppresses EAE development | statistically significant increase | notable decrease | 22.12 ± 2.09 ^c | 26/34 (76%) ^a | 2.03 ± 0.27 ^b | minimal cellular toxicity | significantly increased | significantly suppresses pSTAT3 expression |
